For test [1], the target named is Protein kinase C gamma type (Homo sapiens) (UniProt P05129). The experiment in a line: Inhibition of human truncated PKC gamma expressed in baculovirus assessed as substrate phosphorylation using fluorescence-labelled peptides as substrate at 0.2 uM after 90 mins by microfluidic peptide phosphorylation assay.
In test [2] the target is T1, Serine/threonine-protein kinase D1 (Homo sapiens) (UniProt Q15139).
T1 sequence (whole entry): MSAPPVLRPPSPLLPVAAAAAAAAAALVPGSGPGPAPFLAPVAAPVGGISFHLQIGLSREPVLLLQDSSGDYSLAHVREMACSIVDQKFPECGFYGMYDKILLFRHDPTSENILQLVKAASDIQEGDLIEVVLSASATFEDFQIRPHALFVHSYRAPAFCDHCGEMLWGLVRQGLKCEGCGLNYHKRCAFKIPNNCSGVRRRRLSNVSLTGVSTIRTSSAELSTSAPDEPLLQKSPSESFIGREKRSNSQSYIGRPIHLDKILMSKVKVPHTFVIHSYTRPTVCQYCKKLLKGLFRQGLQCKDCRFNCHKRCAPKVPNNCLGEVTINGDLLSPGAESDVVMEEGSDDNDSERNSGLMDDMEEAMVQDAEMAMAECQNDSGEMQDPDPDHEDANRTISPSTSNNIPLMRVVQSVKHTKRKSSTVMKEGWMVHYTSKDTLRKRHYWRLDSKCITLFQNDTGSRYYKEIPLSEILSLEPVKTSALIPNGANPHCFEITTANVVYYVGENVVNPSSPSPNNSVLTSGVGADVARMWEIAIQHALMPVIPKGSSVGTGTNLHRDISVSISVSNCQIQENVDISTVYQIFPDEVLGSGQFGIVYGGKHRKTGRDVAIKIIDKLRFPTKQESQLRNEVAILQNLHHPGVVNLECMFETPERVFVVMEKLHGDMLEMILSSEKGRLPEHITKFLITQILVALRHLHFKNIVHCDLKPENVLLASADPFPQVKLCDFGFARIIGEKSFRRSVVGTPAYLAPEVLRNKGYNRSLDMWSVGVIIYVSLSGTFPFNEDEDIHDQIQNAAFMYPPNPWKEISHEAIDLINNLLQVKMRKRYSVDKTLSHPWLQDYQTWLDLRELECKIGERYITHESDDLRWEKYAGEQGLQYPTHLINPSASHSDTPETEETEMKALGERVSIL
The experiment in a line: Inhibition of human full length PKD1 expressed in baculovirus assessed as substrate phosphorylation using fluorescence-labelled peptides as substrate at 0.2 uM after 90 mins by microfluidic peptide phosphorylation assay.

The target of test [3] is T2, Serine/threonine-protein kinase D2 (Homo sapiens) (UniProt Q9BZL6).
T2 sequence (whole entry): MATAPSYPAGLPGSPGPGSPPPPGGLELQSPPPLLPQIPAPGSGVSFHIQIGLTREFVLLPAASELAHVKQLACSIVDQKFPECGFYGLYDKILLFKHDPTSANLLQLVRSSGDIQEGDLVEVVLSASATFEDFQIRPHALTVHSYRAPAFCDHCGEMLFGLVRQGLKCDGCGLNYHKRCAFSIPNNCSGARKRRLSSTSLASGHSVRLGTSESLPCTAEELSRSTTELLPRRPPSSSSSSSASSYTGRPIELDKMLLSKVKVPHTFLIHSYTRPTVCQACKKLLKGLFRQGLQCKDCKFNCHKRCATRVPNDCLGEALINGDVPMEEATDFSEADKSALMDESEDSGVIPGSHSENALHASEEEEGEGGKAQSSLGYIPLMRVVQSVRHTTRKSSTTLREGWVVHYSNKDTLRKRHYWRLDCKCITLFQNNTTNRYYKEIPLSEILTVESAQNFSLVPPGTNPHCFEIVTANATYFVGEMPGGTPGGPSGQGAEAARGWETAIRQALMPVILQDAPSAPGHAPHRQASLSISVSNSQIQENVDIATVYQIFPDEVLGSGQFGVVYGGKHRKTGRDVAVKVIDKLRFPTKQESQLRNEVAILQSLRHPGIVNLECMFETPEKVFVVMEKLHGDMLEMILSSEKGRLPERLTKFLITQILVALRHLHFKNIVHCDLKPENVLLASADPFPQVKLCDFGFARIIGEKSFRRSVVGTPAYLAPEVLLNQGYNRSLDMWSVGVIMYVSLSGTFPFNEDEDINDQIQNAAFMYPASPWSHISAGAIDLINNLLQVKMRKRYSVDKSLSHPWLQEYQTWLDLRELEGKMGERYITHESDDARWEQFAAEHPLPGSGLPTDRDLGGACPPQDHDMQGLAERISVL
The experiment in a line: Inhibition of human full length PKD2 expressed in baculovirus assessed as substrate phosphorylation using fluorescence-labelled peptides as substrate at 0.06 uM after 90 mins by microfluidic peptide phosphorylation assay.

Test [4] concerns T3, Receptor-type tyrosine-protein kinase FLT3 (Homo sapiens), P36888 [D835Y].
T3 sequence (whole entry): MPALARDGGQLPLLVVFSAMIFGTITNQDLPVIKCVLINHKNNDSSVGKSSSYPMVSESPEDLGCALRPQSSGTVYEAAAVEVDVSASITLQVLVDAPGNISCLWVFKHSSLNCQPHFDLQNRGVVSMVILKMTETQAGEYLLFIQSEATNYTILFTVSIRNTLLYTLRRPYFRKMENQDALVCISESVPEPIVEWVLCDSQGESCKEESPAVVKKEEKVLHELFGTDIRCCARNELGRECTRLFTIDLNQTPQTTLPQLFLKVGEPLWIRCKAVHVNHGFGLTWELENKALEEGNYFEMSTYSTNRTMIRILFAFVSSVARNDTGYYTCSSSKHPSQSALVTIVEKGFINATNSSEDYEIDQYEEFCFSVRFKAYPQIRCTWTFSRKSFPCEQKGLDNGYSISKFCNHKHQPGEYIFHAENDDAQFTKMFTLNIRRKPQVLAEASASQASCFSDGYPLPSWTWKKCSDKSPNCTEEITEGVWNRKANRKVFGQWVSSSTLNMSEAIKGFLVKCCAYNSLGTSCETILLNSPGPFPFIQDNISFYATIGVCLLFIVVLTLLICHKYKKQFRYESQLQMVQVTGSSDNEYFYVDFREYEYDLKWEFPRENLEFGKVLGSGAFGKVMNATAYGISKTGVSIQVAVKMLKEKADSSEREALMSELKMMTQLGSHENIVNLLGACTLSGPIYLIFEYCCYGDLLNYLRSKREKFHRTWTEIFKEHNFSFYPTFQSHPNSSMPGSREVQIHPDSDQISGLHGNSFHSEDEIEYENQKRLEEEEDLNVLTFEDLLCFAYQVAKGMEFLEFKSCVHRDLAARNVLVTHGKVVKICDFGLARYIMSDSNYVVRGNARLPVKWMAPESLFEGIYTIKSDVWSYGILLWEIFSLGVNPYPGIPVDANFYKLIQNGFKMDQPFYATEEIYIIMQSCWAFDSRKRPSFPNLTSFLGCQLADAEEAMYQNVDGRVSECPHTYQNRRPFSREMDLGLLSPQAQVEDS
The experiment in a line: Inhibition of human FLT3 D835Y mutant catalytic domain expressed in baculovirus assessed as substrate phosphorylation using fluorescence-labelled peptides as substrate at 8 uM after 90 mins by microfluidic peptide phosphorylation assay.

With `Clc1ccc(C2(c3ccc(-c4ncnc5[nH]cnc45)cc3)CCNCC2)cc1`, the inhibition in test [1] turned out to be 80%; in test [2], 8%.

Consider `NC1(Cc2ccc(Cl)cc2)CCN(c2ncnc3[nH]ccc23)CC1`, for which the inhibition in test [3] is 1.5%.

As to `NCC1CCN(c2ncnc3[nH]ccc23)CC1`, the inhibition in test [4] worked out at 4.5%.

Values taken from ChEMBL document CHEMBL3132769, “Fragment growing to retain or alter the selectivity of anchored kinase hinge-binding fragments” (Medchemcomm, 2014).
